# Laboratory results from ChEMBL document CHEMBL4373732, “Phosphatidylinositol 3 kinase (PI3K) inhibitors as new weapon to combat cancer” (Eur J Med Chem, 2019).
# Assays:
# [1] = target: T1, Phosphatidylinositol 4,5-bisphosphate 3-kinase catalytic subunit gamma isoform (Homo sapiens, UniProt P48736); test: Reversible competitive inhibition of PI3K p110gamma (unknown origin)
# [2] = target: T2, Phosphatidylinositol 4,5-bisphosphate 3-kinase catalytic subunit beta isoform (Homo sapiens, UniProt P42338)
# T2 sequence (P42338 whole entry, canonical isoform): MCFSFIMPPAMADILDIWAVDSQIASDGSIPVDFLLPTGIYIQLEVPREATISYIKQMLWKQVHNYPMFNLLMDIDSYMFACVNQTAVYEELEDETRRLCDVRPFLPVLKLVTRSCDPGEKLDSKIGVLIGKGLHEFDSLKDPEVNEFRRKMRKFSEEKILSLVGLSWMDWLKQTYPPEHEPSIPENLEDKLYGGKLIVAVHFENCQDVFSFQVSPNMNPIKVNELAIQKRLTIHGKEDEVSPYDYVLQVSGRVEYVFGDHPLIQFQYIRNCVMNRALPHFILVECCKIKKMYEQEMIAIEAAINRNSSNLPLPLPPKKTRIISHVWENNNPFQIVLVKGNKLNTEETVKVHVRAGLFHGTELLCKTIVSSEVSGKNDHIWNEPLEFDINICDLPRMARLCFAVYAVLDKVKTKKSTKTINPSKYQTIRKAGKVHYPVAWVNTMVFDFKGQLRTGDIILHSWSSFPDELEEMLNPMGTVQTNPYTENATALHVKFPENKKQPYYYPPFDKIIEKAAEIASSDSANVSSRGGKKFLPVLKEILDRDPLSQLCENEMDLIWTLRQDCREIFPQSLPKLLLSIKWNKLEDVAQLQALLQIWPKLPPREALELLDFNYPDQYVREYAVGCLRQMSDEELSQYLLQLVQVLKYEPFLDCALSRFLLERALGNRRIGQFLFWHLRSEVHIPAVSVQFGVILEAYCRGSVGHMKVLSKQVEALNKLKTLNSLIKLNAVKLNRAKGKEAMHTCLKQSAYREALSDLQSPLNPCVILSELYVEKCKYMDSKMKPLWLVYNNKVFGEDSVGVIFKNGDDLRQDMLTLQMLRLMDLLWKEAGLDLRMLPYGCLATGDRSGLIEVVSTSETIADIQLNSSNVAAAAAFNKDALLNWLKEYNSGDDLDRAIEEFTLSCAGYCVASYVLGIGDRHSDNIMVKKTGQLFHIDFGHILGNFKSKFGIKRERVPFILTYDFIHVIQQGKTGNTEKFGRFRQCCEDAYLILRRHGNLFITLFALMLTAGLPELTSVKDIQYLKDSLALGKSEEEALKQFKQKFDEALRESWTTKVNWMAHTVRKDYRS
# [3] = target: Phosphatidylinositol 4,5-bisphosphate 3-kinase catalytic subunit alpha isoform (Homo sapiens, UniProt P42336); test: Inhibition of PI3K p110alpha (unknown origin)
# Sequence of Phosphatidylinositol 4,5-bisphosphate 3-kinase catalytic subunit alpha isoform (P42336 whole entry, canonical isoform): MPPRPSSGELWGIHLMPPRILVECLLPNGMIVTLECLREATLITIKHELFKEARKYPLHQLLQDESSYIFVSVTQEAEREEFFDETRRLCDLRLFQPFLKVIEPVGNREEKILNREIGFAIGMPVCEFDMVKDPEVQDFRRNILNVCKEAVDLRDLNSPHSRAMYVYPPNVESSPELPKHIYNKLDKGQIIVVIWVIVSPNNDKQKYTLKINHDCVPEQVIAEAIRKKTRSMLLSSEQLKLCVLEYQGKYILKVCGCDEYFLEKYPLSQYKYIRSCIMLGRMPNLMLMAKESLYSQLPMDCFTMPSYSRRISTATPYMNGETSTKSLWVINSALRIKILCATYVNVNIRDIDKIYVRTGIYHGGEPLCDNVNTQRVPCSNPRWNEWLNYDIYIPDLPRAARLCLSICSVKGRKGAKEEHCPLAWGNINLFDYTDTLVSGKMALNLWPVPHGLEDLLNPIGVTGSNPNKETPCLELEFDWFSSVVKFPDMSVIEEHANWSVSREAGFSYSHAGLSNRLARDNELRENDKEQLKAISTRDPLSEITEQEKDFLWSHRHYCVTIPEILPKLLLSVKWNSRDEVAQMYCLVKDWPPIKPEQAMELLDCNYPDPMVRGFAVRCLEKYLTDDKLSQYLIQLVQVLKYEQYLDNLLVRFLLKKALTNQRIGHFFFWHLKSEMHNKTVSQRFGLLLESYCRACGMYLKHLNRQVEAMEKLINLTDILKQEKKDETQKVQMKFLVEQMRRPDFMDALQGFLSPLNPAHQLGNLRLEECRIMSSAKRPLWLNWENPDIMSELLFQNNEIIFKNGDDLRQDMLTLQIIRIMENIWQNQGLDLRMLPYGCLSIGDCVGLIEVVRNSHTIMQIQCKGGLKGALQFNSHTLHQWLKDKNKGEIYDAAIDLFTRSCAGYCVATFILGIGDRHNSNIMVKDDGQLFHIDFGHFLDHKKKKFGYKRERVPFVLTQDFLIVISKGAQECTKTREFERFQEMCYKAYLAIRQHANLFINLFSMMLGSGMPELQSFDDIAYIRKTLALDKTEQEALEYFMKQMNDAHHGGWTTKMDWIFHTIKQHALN
# [4] = target: T2, Phosphatidylinositol 4,5-bisphosphate 3-kinase catalytic subunit beta isoform; test: Inhibition of PI3K p110beta (unknown origin)
# [5] = target: T3, Phosphatidylinositol 4,5-bisphosphate 3-kinase catalytic subunit delta isoform (Homo sapiens, UniProt O00329); test: Inhibition of PI3K p110delta (unknown origin)
# T3 sequence (O00329 whole entry): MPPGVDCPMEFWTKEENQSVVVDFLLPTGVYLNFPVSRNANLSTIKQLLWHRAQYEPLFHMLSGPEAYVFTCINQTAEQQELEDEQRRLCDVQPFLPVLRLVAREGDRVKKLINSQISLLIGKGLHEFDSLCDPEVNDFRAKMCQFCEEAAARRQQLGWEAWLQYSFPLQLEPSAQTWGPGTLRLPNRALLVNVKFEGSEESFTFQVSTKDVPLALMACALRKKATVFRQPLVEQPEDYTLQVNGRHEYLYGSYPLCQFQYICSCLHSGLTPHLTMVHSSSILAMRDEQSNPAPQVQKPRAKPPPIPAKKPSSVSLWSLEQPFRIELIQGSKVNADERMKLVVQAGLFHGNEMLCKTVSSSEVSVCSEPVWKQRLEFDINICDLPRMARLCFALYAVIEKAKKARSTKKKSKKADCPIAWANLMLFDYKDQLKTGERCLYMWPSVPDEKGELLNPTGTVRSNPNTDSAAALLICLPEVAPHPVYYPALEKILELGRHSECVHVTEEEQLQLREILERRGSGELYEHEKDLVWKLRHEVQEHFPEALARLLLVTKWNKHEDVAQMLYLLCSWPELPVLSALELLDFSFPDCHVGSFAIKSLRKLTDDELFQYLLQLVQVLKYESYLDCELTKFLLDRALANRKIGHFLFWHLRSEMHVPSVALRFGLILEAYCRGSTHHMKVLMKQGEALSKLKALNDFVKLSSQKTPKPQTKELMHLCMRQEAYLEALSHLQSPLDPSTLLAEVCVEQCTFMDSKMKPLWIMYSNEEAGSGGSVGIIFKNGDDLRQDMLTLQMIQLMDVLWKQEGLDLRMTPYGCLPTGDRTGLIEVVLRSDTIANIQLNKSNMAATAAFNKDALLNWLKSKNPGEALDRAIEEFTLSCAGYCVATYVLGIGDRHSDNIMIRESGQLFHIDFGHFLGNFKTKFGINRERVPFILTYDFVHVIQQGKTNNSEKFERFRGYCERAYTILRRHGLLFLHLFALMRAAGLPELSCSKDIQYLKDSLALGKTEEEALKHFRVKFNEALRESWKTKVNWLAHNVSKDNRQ
# [6] = target: T1, Phosphatidylinositol 4,5-bisphosphate 3-kinase catalytic subunit gamma isoform; test: Inhibition of PI3K p110gamma (unknown origin)
# [7] = target: Serine/threonine-protein kinase mTOR (Homo sapiens, UniProt P42345)
# [8] = target: T3, Phosphatidylinositol 4,5-bisphosphate 3-kinase catalytic subunit delta isoform; test: Inhibition of PI3Kdelta (unknown origin)
# T1 sequence (P48736 whole entry, canonical isoform): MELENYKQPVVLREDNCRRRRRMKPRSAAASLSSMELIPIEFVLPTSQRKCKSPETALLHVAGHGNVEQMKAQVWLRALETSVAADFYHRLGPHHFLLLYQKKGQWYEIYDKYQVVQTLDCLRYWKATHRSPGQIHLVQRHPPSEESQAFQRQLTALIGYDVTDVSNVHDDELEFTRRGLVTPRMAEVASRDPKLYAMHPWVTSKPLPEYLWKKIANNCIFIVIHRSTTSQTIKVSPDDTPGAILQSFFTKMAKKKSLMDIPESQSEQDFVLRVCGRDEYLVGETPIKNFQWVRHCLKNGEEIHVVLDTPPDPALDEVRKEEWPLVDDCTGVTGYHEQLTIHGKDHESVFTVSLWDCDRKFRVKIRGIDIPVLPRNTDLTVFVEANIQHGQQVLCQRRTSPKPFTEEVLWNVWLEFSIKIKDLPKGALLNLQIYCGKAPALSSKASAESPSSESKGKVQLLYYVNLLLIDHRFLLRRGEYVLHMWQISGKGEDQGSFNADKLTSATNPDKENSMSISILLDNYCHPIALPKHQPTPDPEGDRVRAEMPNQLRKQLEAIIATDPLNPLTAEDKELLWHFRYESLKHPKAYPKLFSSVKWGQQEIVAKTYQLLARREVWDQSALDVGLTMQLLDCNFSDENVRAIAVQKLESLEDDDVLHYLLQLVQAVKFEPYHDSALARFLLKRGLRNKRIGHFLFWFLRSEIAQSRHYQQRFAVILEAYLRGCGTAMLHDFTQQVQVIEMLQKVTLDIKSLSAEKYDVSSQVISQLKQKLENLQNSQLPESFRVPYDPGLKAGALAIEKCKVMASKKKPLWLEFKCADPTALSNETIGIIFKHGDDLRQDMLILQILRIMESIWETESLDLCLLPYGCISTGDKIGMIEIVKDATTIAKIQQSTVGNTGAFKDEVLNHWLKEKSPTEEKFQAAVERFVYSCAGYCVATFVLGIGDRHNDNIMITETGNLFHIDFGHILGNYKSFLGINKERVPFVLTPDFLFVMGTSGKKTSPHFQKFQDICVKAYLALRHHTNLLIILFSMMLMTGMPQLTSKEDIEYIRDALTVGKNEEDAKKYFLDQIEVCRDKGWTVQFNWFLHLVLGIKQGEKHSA
smiles,measurement,setting,value
COc1ccc(Cl)c(Nc2nc3ccccc3nc2NS(=O)(=O)c2cccc(NC(=O)C(C)(C)N)c2)c1 [PILARALISIB],IC50,[1],0.383 µM
same,IC50,[2],0.036 µM
CCn1c(=O)c(-c2cc[nH]n2)cc2c(C)nc(N)nc21 [VOXTALISIB],IC50,[3],0.039 µM
same,IC50,[4],0.113 µM
same,IC50,[5],0.043 µM
same,IC50,[6],0.009 µM
same,IC50,[7],0.157 µM
C[C@H](Nc1ncnc2[nH]cnc12)c1nc2ccc(F)cc2c(=O)n1-c1ccccc1 [ACALISIB],IC50,[8],0.0127 µM
